From patent US20160046610A1, “3-HETEROARYL SUBSTITUTED INDAZOLES” (BAYER PHARMA AKTIENGESELLSCHAFT, priority 2013, published 2016) come the findings set out here.

Structures are written as SMILES. Where two headings read alike, the source gives them in different places. Bounds are passed on as bounds.

The target of assay [1] is T1, catalytic domain of human Bub1 (amino acids 704-1085) (Homo sapiens, UniProt O43683).
T1 construct: catalytic domain of human Bub1 (amino acids 704-1085); His6 (N); made in house; host or cells: Hi5 insect cells
Briefly: Bub1 kinase assay (TR-FRET). The format is biochemical. The method, then: To this end, 100-fold concentrated compound solutions (in DMSO) were previously prepared by serial dilution (1:3.4) of 2 mM stocks in a clear low volume 384-well source microtiter plate (Greiner Bio-One, Frickenhausen, Germany), from which 50 nl of compounds were transferred into a black low volume test microtiter plate from the same supplier. […] The resulting mixture (5 μL final volume) was incubated at 22° C. during 60 min., and the reaction was stopped by the addition of 5 μL of an aqueous EDTA-solution (50 mM EDTA, in 100 mM HEPES pH 7.5 and 0.2% (w/v) bovine serum albumin) which also contained the TR-FRET detection reagents (0.2 μM streptavidin-XL665 [Cisbio Bioassays, Codolet, France] and 1 nM anti-phosho-Serine antibody [Merck Millipore, cat. #35-001] and 0.4 nM LANCE EU-W1024 labeled anti-mouse IgG antibody [Perkin-Elmer, product no. AD0077, alternatively a Terbium-cryptate-labeled anti-mouse IgG antibody from Cisbio Bioassays can be used]). The stopped reaction mixture was further incubated 1 h at 22° C. in order to allow the formation of complexes between peptides and detection reagents. Subsequently, the amount of product was evaluated by measurement of the resonance energy transfer from the Eu-chelate-antibody complex recognizing the Phosphoserine residue to the streptavidin-XL665 bound to the biotin moiety of the peptide. […] IC50 values were calculated by fitting the normalized inhibition data to a 4-parameter logistic equation (Minimum, Maximum, IC50, Hill; Y=Max+(Min−Max)/(1+(X/IC50)Hill)).

The next assay concerns HeLa cell line. Briefly: Proliferation assay (HeLa cell line), crystal violet staining. The class given is cell-based. The conditions noted are these: Homo sapiens, 96 h, read-out: Biological Assay 2: Proliferation assay (HeLa cell line) median IC50. On the procedure:
Cultivated tumor cells (cells were ordered from ATCC, except HeLa-MaTu and HeLa-MaTu-ADR, which were ordered from EPO-GmbH, Berlin) were plated at a density of 1000 to 5000 cells/well, depending on the growth rate of the respective cell line, in a 96-well multititer plate in 200 μL of their respective growth medium supplemented 10% fetal calf serum. After 24 hours, the cells of one plate (zero-point plate) were stained with crystal violet (see below), while the medium of the other plates was replaced by fresh culture medium (200 μL), to which the test substances were added in various concentrations (0 μM, as well as in the range of 0.001-10 μM; the final concentration of the solvent dimethyl sulfoxide was 0.5%). The cells were incubated for 4 days in the presence of test substances. Cell proliferation was determined by staining the cells with crystal violet: the cells were fixed by adding 20 μl/measuring point of an 11% glutaric aldehyde solution for 15 minutes at room temperature. After three washing cycles of the fixed cells with water, the plates were dried at room temperature. The cells were stained by adding 100 μl/measuring point of a 0.1% crystal violet solution (pH 3.0). After three washing cycles of the stained cells with water, the plates were dried at room temperature. The dye was dissolved by adding 100 μl/measuring point of a 10% acetic acid solution. Absorption was determined by photometry at a wavelength of 595 nm. The change of cell number, in percent, was calculated by normalization of the measured values to the absorption values of the zero-point plate (=0%) and the absorption of the untreated (0 μm) cells (=100%). The IC50 values were determined by means of a 4 parameter fit using the company's own software.

The mark [2] stands for this setting: TR-FRET, recombinant catalytic domain of human Bub1, ATP 10 μM, peptide substrate 1 μM, median value, read-out: Biological Assay 1: Bub1 kinase assay median IC50.

T1 sequence (O43683 704-1085): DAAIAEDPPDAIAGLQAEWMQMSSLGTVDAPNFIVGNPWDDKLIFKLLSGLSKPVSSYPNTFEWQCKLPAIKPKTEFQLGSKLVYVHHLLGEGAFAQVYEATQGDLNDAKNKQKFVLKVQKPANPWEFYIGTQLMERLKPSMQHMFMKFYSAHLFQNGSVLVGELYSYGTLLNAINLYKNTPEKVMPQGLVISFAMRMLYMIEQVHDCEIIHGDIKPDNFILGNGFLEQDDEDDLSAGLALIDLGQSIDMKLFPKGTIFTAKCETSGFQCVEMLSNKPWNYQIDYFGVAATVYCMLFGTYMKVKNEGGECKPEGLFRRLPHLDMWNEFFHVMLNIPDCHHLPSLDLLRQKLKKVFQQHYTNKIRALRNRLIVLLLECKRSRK

For `Oc1cnc(-c2nn(Cc3ccccc3F)c3ccccc23)nc1Nc1ccncn1` [Example 2-9-1, 2-[1-(2-fluorobenzyl)-1H-indazol-3-yl]-4-(pyrimidin-4-ylamino)pyrimidin-5-ol], the IC50 is 13 nM in assay [1] (setting [2]) and over 10000 nM in the assay on HeLa cell line (HeLa).
As to `COc1ccc(Cn2nc(-c3ncc(OC)c(Nc4cn[nH]c4)n3)c3ccccc32)cc1` [Example 2-10-1, 5-methoxy-2-[1-(4-methoxybenzyl)-1H-indazol-3-yl]-N-(1H-pyrazol-4-yl)pyrimidin-4-amine], the IC50 in assay [1] was found to be 20 nM; in the assay on HeLa cell line (HeLa), 3400 nM.
Consider `CCOc1cc(F)c(Cn2nc(-c3ncc(OC)c(Nc4cn[nH]c4)n3)c3ccccc32)c(F)c1` [Example 2-10-2, 2-[1-(4-ethoxy-2,6-difluorobenzyl)-1H-indazol-3-yl]-5-methoxy-N-(1H-pyrazol-4-yl)pyrimidin-4-amine], for which the IC50 in assay [1] (setting [2]) is 4.7 nM; with HeLa cell line (HeLa), over 10000 nM.
With `Fc1ccc(Cn2nc(-c3cc(Nc4ccncn4)ccn3)c3ccccc32)c(F)c1` [Example 2-11-1, N-{2-[1-(2,4-difluorobenzyl)-1H-indazol-3-yl]-pyridin-4-yl}pyrimidin-4-amine], the IC50 in assay [1] is 66 nM; with HeLa cell line (HeLa cells, incubated for 4 days with test substance, crystal violet staining, median value), over 10000 nM.
`CCOc1cc(F)c(Cn2nc(-c3ncc(OC)c(Nc4ccccc4C(N)=O)n3)c3ccccc32)c(F)c1` [Example 2-12-1, 2-({2-[1-(4-ethoxy-2,6-difluorobenzyl)-1H-indazol-3-yl]-5-methoxypyrimidin-4-yl}amino)benzamide]: the IC50 in assay [1] (setting [2]) is 920 nM; in the assay on HeLa cell line (HeLa), over 10000 nM.
In the case of `CCOc1cc(F)c(Cn2nc(-c3ncc(OC)c(Nc4ccccc4C(=O)NC)n3)c3ccccc32)c(F)c1` [Example 2-12-2, 2-({2-[1-(4-ethoxy-2,6-difluorobenzyl)-1H-indazol-3-yl]-5-methoxypyrimidin-4-yl}amino)-N-methylbenzamide], the IC50 (in assay [1] (setting [2]); with HeLa cell line (HeLa)) was 1100 nM throughout.
For the molecule `CCOc1cc(F)c(Cn2nc(-c3ncc(OC)c(Nc4ccc(F)cc4C(=O)NC)n3)c3ccccc32)c(F)c1` [Example 2-12-3, 2-({2-[1-(4-ethoxy-2,6-difluorobenzyl)-1H-indazol-3-yl]-5-methoxypyrimidin-4-yl}amino)-5-fluoro-N-methylbenzamide], the IC50 amounted to 6800 nM in assay [1] (setting [2]) and 1200 nM in the assay with HeLa cell line (HeLa).
Consider `CCOc1cc(F)c(Cn2nc(-c3ncc(OC)c(Nc4ccc(F)cc4C(N)=O)n3)c3ccccc32)c(F)c1` [Example 2-12-4, 2-({2-[1-(4-ethoxy-2,6-difluorobenzyl)-1H-indazol-3-yl]-5-methoxypyrimidin-4-yl}amino)-5-fluorobenzamide], for which the values for the IC50 (in assay [1] (setting [2]); in the assay with HeLa cell line (HeLa)) were 110 nM and 2400 nM, respectively.
